According to patent publication US8232402B2, “Quinolinone farnesyl transferase inhibitors for the treatment of synucleinopathies and other indications” (Link Medicine Corporation, priority 2008, dated 2012):

Tests used:
α-synuclein inclusions = experiment: Inclusion histology in α-synuclein transgenic mice (α-synuclein and ubiquitin immunostaining, Campbell-Switzer); type: in vivo
Protocol: (§1) Farnesyl transferase inhibitors Zarnestra and OSI-754 were administered to mice of the α-synuclein transgenic line described in Masliah et al. (Masliah et al. “Dopaminergic loss and inclusion body formation in alpha-synuclein mice: implications for neurodegenerative disorders” Science 287(5456): 1265-69, 2000; incorporated herein by reference). Animals from this line have α-synuclein neuronal inclusions in the cortex, hippocampus, and the olfactory bulb (Masliah et al. “Dopaminergic loss and inclusion body formation in alpha-synuclein mice: implications for neurodegenerative disorders” Science 287(5456): 1265-69, 2000; incorporated herein by reference). Transgenic mice were orally administered either FTI in 20% cyclodextrin solution or the same volume of vehicle alone twice a day for 30 or 90 days. In some cases, non-transgenic mice also received vehicle twice a day for 30 to 90 days. At the end of treatment, mice were sacrificed, and the brains removed and hemisected. One hemisphere of each was fixed in 4% paraformaldehyde/PBS (pH 7.4), cryoperserved, then sectioned for histology. The other hemisphere was subdivided into four brain regions, including the cortex and hippocampus, that were homogenized and processed into cytoplasmic and membrane fractions.
Formation of α-synuclein inclusions in the cortex and hippocampus was probed by immunostaining with an antibody for human α-synuclein. Cells positive for human α-synuclein were quantified. […] These regions were also analyzed for ubiquitin-immunoreactive inclusions and by the Campbell Switzer method of silver staining. Ubiquitin is known to be a constituent of Lewy bodies and in the α-synculein inclusions found in the transgenic mouse line used in the study (Masliah et al. “Dopaminergic loss and inclusion body formation in alpha-synuclein mice: implications for neurodegenerative disorders” Science 287(5456): 1265-69, 2000; incorporated herein by reference). […] Campbell-Switzer staining is a general marker of Lewy Body type inclusions (Uchihara et al. “Silver stainings distinguish Lewy bodies and glial cytoplasmic inclusions: comparison between Gallyas-Braak and Campbell-Switzer methods” Acta Neuropathol (Berl) 110(3):255-60, 2005; incorporated herein by reference).
Formation of α-synuclein inclusions in the cortex and hippocampus was probed by immunostaining with an antibody for human α-synuclein. Cells positive for human α-synuclein were quantified.

α-synuclein = α-synuclein sandwich ELISA in brain fractions of α-synuclein transgenic mice; type: in vivo
Protocol: as §1
Total α-synuclein levels were analyzed by a sandwich ELISA assay similar to one previously described (El-Agnaf et al. “Detection of oligomeric forms of alpha-synuclein protein in human plasma as a potential biomarker for Parkinson's disease” FASEB J. 20(3):419-25, 2006; incorporated herein by reference). In the cortex of vehicle treated animals, α-synuclein protein levels in the α-synuclein transgenic line are greater than in non-transgenic mice in both cytoplasmic (FIG. 10) and membrane fractions (FIG. 11). Transgenic mice that received Zarnestra had lower α-synuclein protein levels than vehicle-treated transgenic mice and nearly the same as that detected in the non-transgenic group in both the cytoplasmic (FIG. 10) and membrane fractions (FIG. 11), which represent soluble and insoluble α-synuclein, respectively. Farnesylated UCH-L1 in the cortex is contained in the membrane fraction. The amount of UCH-L1 was determined by quantitative Western Blot.

farnesylated UCH-L1 = experiment: Farnesylated UCH-L1 in cortex membrane fraction of α-synuclein transgenic mice (quantitative Western blot); type: in vivo; conditions: 35 mg/kg twice a day, 30 days
Protocol: Farnesyl transferase inhibitors Zarnestra and OSI-754 were administered to mice of the α-synuclein transgenic line described in Masliah et al. (Masliah et al. “Dopaminergic loss and inclusion body formation in alpha-synuclein mice: implications for neurodegenerative disorders” Science 287(5456): 1265-69, 2000; incorporated herein by reference). Animals from this line have α-synuclein neuronal inclusions in the cortex, hippocampus, and the olfactory bulb (Masliah et al. “Dopaminergic loss and inclusion body formation in alpha-synuclein mice: implications for neurodegenerative disorders” Science 287(5456): 1265-69, 2000; incorporated herein by reference). […]
Total α-synuclein levels were analyzed by a sandwich ELISA assay similar to one previously described (El-Agnaf et al. “Detection of oligomeric forms of alpha-synuclein protein in human plasma as a potential biomarker for Parkinson's disease” FASEB J. 20(3):419-25, 2006; incorporated herein by reference). […] Transgenic mice that received Zarnestra had lower α-synuclein protein levels than vehicle-treated transgenic mice and nearly the same as that detected in the non-transgenic group in both the cytoplasmic (FIG. 10) and membrane fractions (FIG. 11), which represent soluble and insoluble α-synuclein, respectively. […] The amount of UCH-L1 was determined by quantitative Western Blot. […]

[1] = test system: α-synuclein in COS-7 cells; experiment: α-synuclein degradation assay in COS-7 cells; type: cell-based; conditions: transfected COS-7 cells, 35 μM lactacystin, 24 hours
From the text: Plasmids: C220S cDNA was generated by PCR site-specific mutagenesis. For the PCR, the 5′ primer is uchforw SEQ ID NO: 1 ([…]), and 3′ primer is uchc220s SEQ ID NO:2 (CTAAGA […]). Wt UCH-L1 served as the template. The PCR fragment was inserted into pcDNA vector. For S 18YC220S mutant, S 18Y UCH-L1 served as the template in PCR. For the FLAG tagged UCH-L1, the 5′ primer is FLAGuchforw SEQ ID NO: 3 ([…] CGATGGAG), and the 3′ primer is uchrev SEQ ID NO: 4 ([…]). Wt UCH-L1 or C220S served as the template. PCR fragment was purified and inserted into pcDNA vector. For the FLAG tagged UCH-L3, the 5′ primer is L3HindIII SEQ ID NO: 5 (CTAAAGCTTATGGACTAC […]), the 3′ primer is L3XhoISAA SEQ ID NO: 6 ([…]). […] After 24 hours of incubation, the cells were lysed with Tris buffer (50 mM Tris, 2% SDS, 0.1% NP-40), and subjected to SDS-PAGE, followed by quantitative Western blotting.
The C220S mutation eliminated the ability of S118 to promote α-synuclein accumulation in COS-7 cells but had no effect on the S18Y polymorph (FIG. 2, panel C): the relative amount of 16 kDa α-synuclein was quantified and normalized against the amount of actin in transfected COS-7 cells with the presence of UCH-L1 variants. […]

[2] = α-synuclein transgenic mice, summary, dose not given

| Structure (SMILES) | Campbell-Switzer stained inclusions versus vehicle (α-synuclein inclusions; 35 mg/kg twice a day, 30 days) | ubiquitin-immunoreactive inclusions versus vehicle (α-synuclein inclusions; 35 mg/kg twice a day, 30 days) | inclusions versus vehicle (α-synuclein inclusions; 35 mg/kg twice a day, 30 days, oral) | α-synuclein-positive cells per mm^2 versus vehicle (α-synuclein inclusions; cortex and hippocampus, 35 mg/kg twice a day, 30 days) | inclusions versus vehicle (α-synuclein inclusions; [2]) | levels of α-synuclein protein (ELISA) (α-synuclein; cortex, cytoplasmic and membrane fractions, 35 mg/kg twice a day, 30 days) | levels of α-synuclein in the cortex (α-synuclein; [2]) | amount of farnesylated UCH-L1 (farnesylated UCH-L1) | accumulation of α-synuclein [1] [%] |
| --- | --- | --- | --- | --- | --- | --- | --- | --- | --- |
| Cn1cncc1C(N)(c1ccc(Cl)cc1)c1ccc2c(c1)c(-c1cccc(Cl)c1)cc(=O)n2C (stereo not drawn) [Zarnestra] | fewer inclusions | fewer ubiquitin-immunoreactive inclusions | fewer inclusions | significantly fewer | fewer inclusions | decreased levels of α-synuclein protein | decrease levels of α-synuclein in the cortex | decreased the amount of farnesylated UCH-L1 |  |
| CC(=O)N[C@@H](CSC(=O)[C@]1([C@@H](O)C(C)C)NC(=O)[C@H](C)[C@@H]1O)C(=O)O [lactacystin] |  |  |  |  |  |  |  |  | 100 |
